The values below come from US12156874B2, “Inhibitors of TRPC6” (Boehringer Ingelheim International GmbH, priority 2019, dated 2024).

One assay addresses T1, human TRPC6 (Homo sapiens, UniProt Q9Y210).
T1 construct: expressed in transfected cells; host or cells: HEK293
T1 sequence (Q9Y210 1-931): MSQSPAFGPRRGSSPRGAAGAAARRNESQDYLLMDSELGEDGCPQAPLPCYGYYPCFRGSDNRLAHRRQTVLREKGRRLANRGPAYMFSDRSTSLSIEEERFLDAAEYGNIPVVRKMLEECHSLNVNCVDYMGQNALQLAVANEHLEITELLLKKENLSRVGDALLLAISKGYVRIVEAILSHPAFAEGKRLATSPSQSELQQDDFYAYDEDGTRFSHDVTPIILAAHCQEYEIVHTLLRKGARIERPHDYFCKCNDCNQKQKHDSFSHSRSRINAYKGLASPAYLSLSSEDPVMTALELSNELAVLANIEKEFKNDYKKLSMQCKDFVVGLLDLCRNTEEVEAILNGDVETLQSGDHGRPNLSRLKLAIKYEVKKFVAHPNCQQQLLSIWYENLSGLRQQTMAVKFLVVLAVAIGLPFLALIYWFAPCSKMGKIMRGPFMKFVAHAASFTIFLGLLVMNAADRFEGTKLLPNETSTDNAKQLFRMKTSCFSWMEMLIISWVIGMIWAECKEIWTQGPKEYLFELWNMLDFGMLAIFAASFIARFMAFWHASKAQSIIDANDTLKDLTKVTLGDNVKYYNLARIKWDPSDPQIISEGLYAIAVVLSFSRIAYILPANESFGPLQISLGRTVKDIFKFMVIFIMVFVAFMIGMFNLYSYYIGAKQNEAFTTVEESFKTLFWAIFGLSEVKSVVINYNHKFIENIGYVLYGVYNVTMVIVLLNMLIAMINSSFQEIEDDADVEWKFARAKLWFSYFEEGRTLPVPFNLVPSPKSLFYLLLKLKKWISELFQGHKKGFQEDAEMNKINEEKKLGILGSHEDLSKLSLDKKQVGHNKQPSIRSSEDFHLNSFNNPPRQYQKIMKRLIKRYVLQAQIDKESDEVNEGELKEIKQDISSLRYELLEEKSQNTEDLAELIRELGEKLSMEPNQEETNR
Put plainly: Assay A: Determination of TRPC6 inhibition, whole-cell patch clamp assay. The class given is cell-based. The settings on record: 30 nM; HEK293 cells expressing human TRPC6; pre-incubated at least 3 h; average inward current densities vs vehicle; activated by 10 μM ethyl 8-fluoro-1H,2H,3H,4H,5H-pyrido[4,3-b]indole-2-carboxylate. From the text: Assay A: Determination of TRPC6 Inhibition
HEK293 cells transfected with a plasmid expressing human TRPC6 are used for a patch clamp assay. Patch clamp experiments permit the detection of currents through TRPC6 channels in cellular systems as mentioned above. For whole-cell patch clamp recordings, a glass capillary electrode filled with electrolyte is brought into contact with a single cell and a high-resistance (gigaohm) seal is established with the cell membrane. The membrane is then ruptured to achieve the whole-cell configuration, permitting control of the intracellular electrical potential and measurement of electrical currents across the cell membrane using an amplifier connected to the electrode. A perfusion system permits control of the extracellular solution, including the addition of inhibitors and activators of TRPC6 channels. The TRPC6 current can be activated by 10 μM ethyl 8-fluoro-1H,2H,3H,4H,5H-pyrido[4,3-b]indole-2-carboxylate (commercially available, MFCD02930345) in the extracellular solution.
For the characterization of TRPC6 inhibitors, TRPC6 expression was induced for 20-48 hours, cells were removed from growth plates, and replated at low density (to attain good single-cell physical separation) in small dishes for measurement. Patch clamp recordings were performed in the whole-cell configuration at a holding potential of −40 mV. Every 1.5 seconds, a 400 ms voltage ramp was applied from −80 to +80 mV, flanked by 50 ms constant segments at −80 and +80 mV, respectively. TRPC6-mediated currents were quantified during those constant segments at −80 mV and +80 mV. The internal (pipette) solution consisted of 140 mM cesium aspartate, 10 mM EGTA, 1.91 mM CaCl2, 2.27 mM MgCl2 and 10 mM HEPES, pH 7.2 with CsOH, 40 nM calculated free Ca^2+. The external (bath) solution consisted of 145 mM NaCl, 4.5 mM KCl, 3 mM MgCl2, 10 mM HEPES, 10 mM glucose, 1 mM EGTA, pH 7.4 with NaOH. TRPC6 expressing cells were pre-incubated with potential inhibitors at either 30 nM or at various concentrations (for concentration-response-curves) or vehicle for at least 3 h and both maximal inward and outward currents were determined after addition of ethyl 8-fluoro-1H,2H,3H,4H,5H-pyrido[4,3-b]indole-2-carboxylate. Percent current inhibition was calculated from the average inward current densities of treated and vehicle cells. Current densities were calculated as absolute current normalized with respect to the individual cell's membrane capacitance as a surrogate parameter for cellular surface area. The number of cells measured for each group was chosen in a way that an average of 50% current inhibition with respect to the vehicle group would yield a statistically significant difference (p<0.05) in 90% of the cases based on the variability in current expression between cells. For the estimation of half-inhibitory concentrations, the Hill equation was fitted to the average % percent inhibition values at a series of concentrations of a specific compound.
A general note: Patch clamp records ionic current or voltage across a cell membrane.

The subject of a further assay is PASMC. The settings on record: cited from earlier work.
A further assay has as its system TRPC6. The settings on record: lung tissue of IPAH patients; cited from earlier work.

In general, inhibition refers to the change of the read-out against control, counted positive when it falls. Read a low inhibition as a weak effect.

On human TRPC6, `COc1ccc(Oc2ccc(C(=O)N3CCC(c4nnc(N)cc4C)CC3)cc2)cn1` [Compound 7, 6-(1-{4-[(6-Methoxypyridin-3-yl)oxy]benzoyl}piperidin-4-yl)-5-methylpyridazin-3-amine trifluoroacetic acid] returned an inhibition at 0.03 µM of 61%.
Still for that read-out and setting: in the case of `COc1cc(C(=O)N2CC[C@H](c3nnc(N)cc3C)C[C@@H]2C)ccc1Oc1ccc(C(F)(F)F)nc1` [Compound 4, 6-[(2S,4S)-1-(3-Methoxy-4-{[6-(trifluoromethyl)pyridin-3-yl]oxy}benzoyl)-2-methylpiperidin-4-yl]-5-methylpyridazin-3-amine] it was 12%; in that of `COc1ccc(Oc2cnc(C(=O)N3CCC(c4ccc(N)nn4)CC3)cc2OC)cn1` [Compound 5, 6-(1-{4-Methoxy-5-[(6-methoxypyridin-3-yl)oxy]pyridine-2-carbonyl}piperidin-4-yl)pyridazin-3-amine trifluoracetic acid], 27%; in that of `COc1ccc(Oc2ccc(C(=O)N3CC[C@H](c4nnc(N)cc4C)C[C@@H]3C)cc2)cn1` [Compound 1, 6-[(2S,4S)-1-{4-[(6-Methoxypyridin-3-yl)oxy]benzoyl}-2-methylpiperidin-4-yl]-5-methylpyridazin-3-amine trifluoroacetic acid], 81%.
The same measure, in the same setting: the value for `COc1ccc(Oc2ccc(C(=O)N3CCC(c4nnc(N)cc4C)CC3)cc2OC)cn1` [Compound 8, 6-(1-{3-Methoxy-4-[(6-methoxypyridin-3-yl)oxy]benzoyl}piperidin-4-yl)-5-methylpyridazin-3-amine trifluoroacetic acid] was 37%.
With `COc1ccccc1Oc1c(NS(=O)(=O)c2ccc(C(C)(C)C)cc2)nc(-c2ncccn2)nc1OCCO` [bosentan], the “proliferation of PASMC” value with PASMC is recorded as “decreases proliferation”. Moreover, the “expression of TRPC6” value in the assay with TRPC6 is “decreases expression of TRPC6”.
In the case of `COc1ccc(Oc2ccc(C(=O)N3CC[C@@H](c4nnc(N)cc4C)[C@@H](C)C3)cc2OC)cn1` [Compound 6, 6-[(3R,4R)-1-{3-Methoxy-4-[(6-methoxypyridin-3-yl)oxy]benzoyl}-3-methylpiperidin-4-yl]-5-methylpyridazin-3-amine], the inhibition at 0.03 µM against human TRPC6 was 72%.
On the same count and under the same terms, the value for `COc1ccc(Oc2ccc(C(=O)N3CC[C@H](c4nnc(N)cc4C)C[C@@H]3C)cc2OC)cn1` [Compound 2, 6-[(2S,4S)-1-{3-Methoxy-4-[(6-methoxypyridin-3-yl)oxy]benzoyl}-2-methylpiperidin-4-yl]-5-methylpyridazin-3-amine] was 60%; that for `COc1ccc(Oc2cnc(C(=O)N3CCC(c4nnc(N)cc4C)CC3)cc2OC)cn1` [Compound 9, 6-(1-{4-Methoxy-5-[(6-methoxypyridin-3-yl)oxy]pyridine-2-carbonyl}piperidin-4-yl)-5-methylpyridazin-3-amine trifluoracetic acid] was 51%.
